Where two headings read alike, the source gives them in different places. One block for each compound: values may come before it.
Tests used:
[1] = test system: rat; conditions: cited from earlier work
[2] = test system: HRP-Goat A'Mouse IgG; assay: Enzymatic determination of protein binding to coated medium binding polystyrene plate; conditions: coated medium binding PS; versus uncoated high binding polystyrene plate; absorbance 405 nm
Method: The surfactants were coated onto a medium binding polystyrene plate (Corning Costar No. 2587) as described in Material and Methods. A medium binding polystyrene plate (Corning Costar No. 2587) and a high binding polystyrene plate (Corning Costar No. 2581) were used as controls.
(a) HRP-Goat A'Mouse IgG: Kirkegaard & Perry Laboratories, Inc. Catalog No. 074-1806. Stock solution: 0.5 mg/ml; working concentration: 0.04 μg/ml. The working concentration was obtained by adding 11 μl of the stock solution per 25 mls of PBS pH 7.4 to produce a work stock (WS), and then diluting 1:6 (i.e., 10 mls WS+50 mls PBS pH 7.4).
(1) 100 μl-well of HRP-Goat A'Mouse IgG at a concentration of 0.04 μg/ml were added to the test wells and incubated for 1 hour at room temperature.
(2) The wells were then washed 5 times with the 1M wash solution. Each wash include a 5 minute soak followed by decanting.
(3) 100 μl/well of substrate (30 mls ABTS+30 mls H2O2) were added to the test wells and incubated for 15 minutes at room temperature in the dark.
(4) 100 μl/well of stopping solution (1% SDS) were added to the test wells.
(5) The plates were then shaken and read at 405 nm.
(6) Reduction in binding was determined by comparing the absorbance measured in step (5) with the absorbance measured for a high binding polystyrene plate which had not been treated with a non-ionic surfactant but otherwise subjected to steps (1) to (5).

[3] = test system: bound protein; assay: Colloidal gold staining of bound protein after MDCK culture in media containing 5% FBS, visual; conditions: colloidal gold after cell culture, visual observation
Method: The procedures used were as follows. Polystyrene 24-well plates were coated with the non-ionic surfactants listed in Table 5 in accordance with the procedures described in Materials and Methods. Uncoated plates were used as a control. For comparison, plates with a covalently attached acrylamide coating (Corning Costar Catalog #2500) and with a stearic acid coating were also tested. The stearic acid coating was applied in the same manner as the non-ionic surfactants again using a 0.1% (w/v) solution.
The plates were gamma sterilized at 1.5 Mrad and then inoculated with 5.6×10^4 MDCK […] per well in 1 ml of complete media containing 5% FBS (Fetal Bovine Serum). Incubation was carried out at 37° C. in a 5% CO2 atmosphere for two days. The plates were fixed and stained, and cell attachment was noted. Following this, the wells were stained using the colloidal gold technique to detect bound protein. Only visual observations were made.

[4] = test system: BSA protein (Bovine Serum Albumin, Fraction V); assay: BSA binding to coated polystyrene 24-well plates at different pH, colloidal gold stain
Method: Polystyrene plates having 24 wells (Corning Costar #9447) were coated as described in Materials and Methods.
BSA protein (Bovine Serum Albumin, Fraction V, Sigma) was prepared at 10 μg/ml in 0.10 M acetate buffer (pH=4.6), in 0.10 M PBS (pH=7.4), and in 0.10 M NaHCO3 buffer (pH=9.2). Wells of each coated plate, along with uncoated controls, were aliquoted 0.50 ml each of the protein solutions. The samples were run in triplicate.
The plates were placed on a rocker table for 30 minutes at 23° C. The protein solutions were then emptied from the plates, and the wells were rinsed three times with dl H2O. Thereafter, 1.0 ml of colloidal gold stain was added to each well (see Materials and Methods). The plates were placed on a rocker table overnight, rinsed three times with dI H2O, and air dried. Absorbance at 550 nm was then read using the Cambridge Technologies Plate Reader.

[5] = test system: IgG; assay: IgG/Au staining of coated polystyrene, type of endgroups
Method: Except where indicated, the non-ionic surfactants were applied to the hydrophobic surfaces being tested as a 0.1% (weight/volume) solution in isopropanol. A sufficient amount of coating solution was used to cover the surface being testing with a thin layer of the solution (e.g., 25 μl of the solution per well for a standard 24-well plate). In some cases, the solution was applied to surface by spraying; in others, it was poured onto the surface (into the well). Except where indicated, coated samples were either dried at 70° C. for 30 minutes in an air circulated oven or dried at room temperature overnight to evaporate the isopropanol. Protein binding was determined in some examples using a colloidal gold straining procedure. In accordance with this procedure, colloidal gold becomes electrostatically attached to bound protein and is detected by measuring absorbance at 550 nanometers. Bio-Rad Laboratories' Colloidal Gold Total Protein Stain was used for this purpose, with absorbance being measured with a Cambridge Technologies Plate Reader (No. 7520). The non-ionic surfactants listed in Table 6 were tested for their ability to produce a low binding surface using the techniques described in Materials and Methods. Polystyrene was used as the hydrophobic test surface and IgG/Au staining was used as the readout.

[6] = test system: Horse IgG; assay: Protein binding by colloidal gold staining, coated medium binding polystyrene plates; conditions: coated medium binding PS; IgG 10 μg/ml, pH 9.4
Method: Except where indicated, the non-ionic surfactants were applied to the hydrophobic surfaces being tested as a 0.1% (weight/volume) solution in isopropanol. A sufficient amount of coating solution was used to cover the surface being testing with a thin layer of the solution (e.g., 25 μl of the solution per well for a standard 24-well plate). In some cases, the solution was applied to surface by spraying; in others, it was poured onto the surface (into the well). Except where indicated, coated samples were either dried at 70° C. for 30 minutes in an air circulated oven or dried at room temperature overnight to evaporate the isopropanol.
Protein binding was determined in some examples using a colloidal gold straining procedure. In accordance with this procedure, colloidal gold becomes electrostatically attached to bound protein and is detected by measuring absorbance at 550 nanometers. Bio-Rad Laboratories' Colloidal Gold Total Protein Stain was used for this purpose, with absorbance being measured with a Cambridge Technologies Plate Reader (No. 7520).
The surfactants were coated onto medium binding polystyrene plates (Corning Costar No. 2587) as described in Material and Methods.
The plates were incubated with IgG as follows: 0.1 ml of Horse IgG (Pierce Labs) at a working concentration of 10 μg/ml in 0.10M NaHCO3 buffer (pH9.4) were added to each well, incubated 30 minutes on a rocker table, and rinsed with dI H2O. The plates were gold stained overnight (0.3 ml/well), rinsed in dI H2O, air dried, and absorbance was measured at 550 nm.

[7] = test system: ^125I-IgG (goat anti-mouse); assay: Radiometric determination of IgG binding to surfactant-coated polystyrene microtiter wells; conditions: for Total IgG binding, Non-Sterilized: coated polystyrene wells; for Total IgG binding, Non-Sterilized / Tight IgG binding, Non-Sterilized: not sterilized; for Total IgG binding, Non-Sterilized / Total IgG binding, Sterilized: after three PBS washes; for Total IgG binding, Sterilized / Tight IgG binding, Sterilized: gamma sterilized (1.5 Mrad); for Tight IgG binding, Sterilized / Tight IgG binding, Non-Sterilized: after two hours in PBS-Tween (0.05%)
Method: The hydrophobic surfaces used were flat bottom microtiter plates composed of high binding polystyrene (Corning Costar No. 2581) and medium binding polystyrene (Corning Costar No. 2587). Testing was performed with and without gamma radiation sterilization using cobalt 60 (1.5 Mrad).
The surfactants were applied to the test plates as described in Materials and Methods, followed by sterilization where indicated.
Levels of protein binding were determined using a radiolabeled protein, namely, ^125I-IgG (goat anti-mouse) purchased from DuPont/NEN. Unlabeled IgG in sodium carbonate buffer pH 9.2 was spiked with ^125I-IgG so that the final concentration of labeled IgG and cold IgG in the test solution was 10 μg/mL.
Aliquots of 0.1 milliliters of the protein solution were placed in quadruplicate in the wells of 8-well strips removed from the test microtiter plates. The wells were incubated overnight at 4° C. with shaking. The supernatants were removed from the wells, followed by three washes with 0.2 mL of PBS. The wells were then dried and individually counted to determine “total” IgG binding. After determining “total” binding, the wells were incubated for two hours in 0.2 mL of PBS-Tween (0.05%) at room temperature with shaking. The supernatants were removed from the wells followed by three washes with 0.2 mL of PBS. The wells were dried and individually counted to determine “tight” IgG binding.
Untreated high binding and medium binding plates were used as controls. A comparative experiment was also performed in which a BSA protein coating was used in place of a surfactant coating. The BSA was preabsorbed onto the walls of the wells and then washed to remove excess material. Testing was then performed using the radiolabeled IgG solution as described above.
Radiolabel measurements were performed in a double blind study at BioMolecular Assays (Woburn, Mass.). IgG binding values per microwell were converted to ng/cm^2 values using a surface area of 0.94 cm^2 for a 0.1 mL volume.

[8] = test system: Fetal Bovine Serum (FBS); assay: Polymer blends molded into petri dishes, FBS protein binding by colloidal gold; conditions: blended at 5% into polypropylene; silver enhancer
Method: Low binding non-ionic surfactant molecules were blended at 5% (except as noted in Table 13) into a base polymer using a twin screw extruder, then injection molded into the shape of 35 mm petri dishes. Proteins tested were BSA and Fetal Bovine Serum (FBS). Protein binding was determined using a colloidal gold staining procedure as described above. In the case of the polypropylene and EVA blends, a silver enhancer was used (Sigma Chem. Co., St, Louis, Mo., Kit #SE-100).

[9] = test system: BSA; assay: Polymer blends molded into petri dishes, BSA binding by colloidal gold; conditions: blended at 5% into polypropylene; silver enhancer
[10] = test system: IgG; assay: Coating durability using water washes, IgG binding by colloidal gold
Method: Polystyrene plates having 24 wells (Corning Costar #9447) were coated with these surfactants as described in Materials and Methods. Durability was tested by adding dI H2O to the wells of a test plate (3.0 mls/well), following which the plate was placed on a rocker table. […] The protein solution was incubated with the plate on a rocker table for 30 minutes at 23° C., following which the plate was H2O rinse 3× (3 mls each time). The colloidal gold staining procedure described above was used to reveal bound protein. The staining comprised an overnight incubation on a rocker table at 23° C., a dI H2O rinse, drying at room temperature, and reading at 550 nm.

Compound: O=[As]O[As]=O (centres unmarked) [As2O3, reference compound]
LD50 [1]: 0.02 grams/Kg

Compound: CCCCCCCC/C=C\CCCCCCCC(=O)OCC(O)CO (centres unmarked) [GLYCEROL MONO-OLEATE]
% Reduction in Protein Binding [2]: 92.4%

Compound: [Cl-].[Na+] [NaCl, reference compound]
LD50 ([1]; in vivo): 4 grams/Kg

Absorbance (550 nm) pH = 9.2 ([4]; BSA 10 μg/ml in 0.10 M NaHCO3 buffer): 0.00
Absorbance (550 nm) pH = 7.4 ([4]; BSA 10 μg/ml in 0.10 M PBS): 0.00
Absorbance (550 nm) pH = 4.6 ([4]; BSA 10 μg/ml in 0.10 M acetate buffer): 0.00
IgG Protein Binding Absorbance (550 nm) [6]: 0.00
Total IgG binding, Non-Sterilized [7]: 18 ng/cm^2
Total IgG binding, Sterilized [7]: 54 ng/cm^2
Tight IgG binding, Sterilized [7]: 25 ng/cm^2
Tight IgG binding, Non-Sterilized [7]: 11 ng/cm^2
% Reduction in Protein Binding [2]: 99.9%
Compound: CCCCCCCCCCCCCCCCOCCOCCO [PEO(2) CETYL ETHER]
Visual Color Upon Protein Staining [3]: None
Bound Protein Absorbance at 550 nm [5]: 0.00

Compound: CCCCCCCCCCCCCCCCCC(=O)O [STEARIC ACID, reference compound]
Visual Color Upon Protein Staining [3]: Very dark

Total IgG binding, Non-Sterilized [7]: 594 ng/cm^2
Tight IgG binding, Non-Sterilized [7]: 173 ng/cm^2
Compound: BSA Protein: BSA protein coating preabsorbed onto the wells, used in place of a surfactant coating [reference compound]

Bound Protein Absorbance (550 nm) FBS [8]: 0.056
Bound Protein Absorbance (550 nm) BSA [9]: 0.060
IgG Protein Binding Absorbance (550 nm) [6]: 0.00
Total IgG binding, Non-Sterilized [7]: 4 ng/cm^2
Total IgG binding, Sterilized [7]: 5 ng/cm^2
Tight IgG binding, Sterilized [7]: 3 ng/cm^2
Tight IgG binding, Non-Sterilized [7]: 2 ng/cm^2
Absorbance (550 nm) Initial ([10]; coated polystyrene, no water wash): 0.00
Absorbance (550 nm) 1 Time 1 hr 23° C. ([10]; dI H2O wash 1 time, 1 hr, 23° C.): 0.09
Absorbance (550 nm) 1 Time 24 hr 23° C. ([10]; dI H2O wash 1 time, 24 hr, 23° C.): 0.10
Absorbance (550 nm) 1 Time 24 hr 37° C. ([10]; dI H2O wash 1 time, 24 hr, 37° C.): 0.10
Absorbance (550 nm) 1 Time 24 hr 70° C. ([10]; dI H2O wash 1 time, 24 hr, 70° C.): 0.10
Absorbance (550 nm) 6 Times 30 min each 23° C. ([10]; dI H2O wash 6 times, 30 min each, 23° C.): 0.10
% Reduction in Protein Binding [2]: 99.8%
Compound: PEO(4) SORBITOL MONO-LAURATE
Bound Protein Absorbance at 550 nm [5]: 0.00
